# Measurements: PMC6152131, “Pharmacokinetic Study of Biotransformation Products from an Anxiolytic Fraction of Tilia americana” (Molecules : A Journal of Synthetic Chemistry and Natural …, 2017)
# How the values were obtained:
# [1] = Pharmacokinetic analysis, two-compartment model (PKSolver); assay type: in vivo, ICR mice
# Procedure: The data shown in Table 2 were applied to the program PKSolver. After a single oral administration of 200 mg/kg of the anxiolitic fraction of T. americana, the behavior of the concentration-time data allowed us to determine the main pharmacokinetic parameters under a two-compartment model (Table 3), and the same program provided the graphical behavior of the variables and the adjustment to the two-compartment model.
# (§1) To evaluate the suitability of the assay for the pharmacokinetic studies, 200 mg/kg of the active fraction was orally administered to the animals. Ten animals were used in each group at different times (0, 5, 10, 15, 30, 60, 120, 240, 480, 720, and 1440 min). Pharmacokinetic calculations were performed using the observed data. All data was subsequently processed using the PKSolver add-in program for Microsoft Excel written in Visual Basic for Applications. All values obtained were expressed in mean ± standard deviation.
# For the pharmacokinetic assay, the selection was made either from a one-compartment or a two-compartment model, with the use of both the Akaike information criterion (AIC) and the Schwarz criterion (SC). Using these two criteria, one can select which model is more suited to being adjusted, to the point where it reaches the lowest values of the AIC or SC criteria, which means that the chosen model is more parsimonious (less parameters required) and best fits the data (low error prediction).
# [2] = Stability of flavonoids and biotransformation products in mouse plasma under different handling conditions; assay type: in vitro ADME, mice; details: for Accuracy Bias 0 h / Observed Conc. 0 h / Accuracy Bias 8 h / Observed Conc. 8 h / Accuracy Bias 24 h / Observed Conc. 24 h: room temperature (25 °C); for Observed Conc. 0 h / Observed Conc. 8 h / Observed Conc. 24 h / Observed Conc. Autosampler (4 °C; 8 h) / Observed Conc. Long-term (−70 °C; 1 month): n = 6; for Accuracy Bias Autosampler (4 °C; 8 h) / Accuracy Bias Long-term (−70°C; 1 month) / Observed Conc. Autosampler (4 °C; 8 h) / Observed Conc. Long-term (−70 °C; 1 month): storage stability
# Procedure: (§2) Plasma dried pulverized samples were extracted with methanol (HPLC grade, Merck). The extracts were filtered with Teflon membrane dimensions 0.45 μm by 13 mm (Millex®-LCR); 20 μL of each filtered sample was injected into the HPLC equipment. The measurements were performed in a (Waters corporation, Milford, CT, USA) 2695 HPLC with a diode array detector (Waters 2996) and processed with the Empower Pro 1.0 software. A Chromolith Performance® RP-18e 100 × 4.6 mm (Merck KGaA, Darmstadt, Germany) was used. The mobile phase consisted of a mixture of acetonitrile and water with the proportion 55:45 and a flow rate of 1 mL/min. The concentrations of the flavonoids and the biotransformation products were obtained by comparison with a pre-built calibration curve at λ = 220 nm.
# […] The investigation enclosed here expected manipulation conditions during all the sample storage and process periods, which included the stability data from the freeze/thaw, bench-top, autosampler, and long–term stability tests.
# For all stability studies, fresh QC samples were evaluated by using a freshly prepared standard curve for the measurements. The concentrations obtained from all the stability studies were compared with the fresh QC samples, and the percentage concentration deviation was calculated. The analytes were considered stable in the mouse plasma when the concentration difference between the freshly prepared samples and the stability samples was less than 15%.
# [3] = Plasma concentration after a single oral dose of the anxiolytic fraction (HPLC); assay type: in vivo, ICR mice; details: mouse, plasma, ICR mice, n = 10
# Procedure: Eleven groups of ten animals each were randomly formed. All animals were orally administered with 200 mg/kg of the active fraction. Animals were anaesthetized with ether, and blood samples were obtained from the retroorbital sinus with a heparinized capillary, each group was examined at different times (0, 5, 10, 15, 30, 60, 120, 240, 480, 720, and 1440 min) after the active fraction was administered. […] Then the plasma samples were frozen and lyophilized. The dry plasma was subsequently used to extract and measure the concentration of the flavonoids and biotransformation products.
# as §2, §1
# [4] = mouse, oral 200 mg/kg anxiolytic fraction, ICR mice plasma, two-compartment model
# [5] = oral 200 mg/kg anxiolytic fraction, ICR mice plasma, two-compartment model
# [6] = oral 200 mg/kg anxiolytic fraction, ICR mice plasma, two-compartment model, n = 10
# [7] = high nominal conc. (7.00; 44.37; 4.50; 31.25 µg/mL)
# [8] = low nominal conc. (1.75; 11.02; 1.12; 1.95 µg/mL)
# [9] = medium nominal conc. (3.50; 22.18; 2.24; 7.81 µg/mL)
smiles,measurement,setting,value
"O=C(O)Cc1cccc(O)c1 [m-HPAA, meta-hydroxyphenylacetic acid]",ka smaller than the ka of DOPAC,"[1]; mouse, in vivo",79%
same,AUC(0-inf),[1]; [4],124 µg·h/mL
same,Cmax,[1]; [4],5.76 µg/mL
same,Tmax,[1]; [4],0.235 h
same,AUC(0-t),"[1]; mouse, oral 200 mg/kg anxiolytic fraction, ICR mice plasma, two-compartment model, read-out: AUC0→1440 (converted)",61.4 µg·h/mL
same,MRT,"[1]; mouse, oral 200 mg/kg anxiolytic fraction, ICR mice plasma, two-compartment model, read-out: MRT (mean residence time) (converted)",35.4 h
same,k el,"[1]; mouse, oral 200 mg/kg anxiolytic fraction, ICR mice plasma, two-compartment model, read-out: k10 (apparent first-order elimination rate constant from the central compartment) (converted)",1.5e-05 s⁻¹
same,half-life,"[1]; mouse, oral 200 mg/kg anxiolytic fraction, ICR mice plasma, two-compartment model, read-out: t1/2β",25 h
same,CL/F (apparent clearance),[1]; [5],0.026 (mg/Kg)/(μg/mL)/min
same,V/F (apparent volume of distribution),[1]; [5],30.45 (mg/Kg)/(µg/mL)
same,k12 (transfer rate constant central to peripheral compartment),[1]; [5],0.009 min⁻¹
same,k21 (transfer rate constant peripheral to central compartment),[1]; [5],0.01 min⁻¹
same,ka (apparent first-order absorption rate constant),[1]; [5],0.24 min⁻¹
same,t1/2ka (absorption half time),[1]; [5],2.84 min
same,t1/2α,[1]; [5],0.5847 h
same,α,[1]; [5],0.02 min⁻¹
same,β,[1]; [5],0.0005 min⁻¹
same,"A (plasma concentration coefficient, central compartment)",[1]; [6],3.49 µg/mL
same,"B (plasma concentration coefficient, peripheral compartment)",[1]; [6],3.36 µg/mL
same,index: relation between rate constants of k12 with respect to k21,[1]; two-compartment model,0.9
same,Accuracy Bias 0 h,[2]; high nominal conc.,1.88%
same,Observed Conc. 0 h,"[2]; high nominal conc. (rutin 7.00; quercetin glucoside, quercitrin, tiliroside 44.37; kaempferol 4.50; m-HPAA, p-HPAA, DOPAC 31.25 µg/mL)",31.40 ± 0.10 µg/mL
same,Accuracy Bias 0 h,[2]; low nominal conc.,0.47%
same,Observed Conc. 0 h,"[2]; low nominal conc. (rutin 1.75; quercetin glucoside, quercitrin, tiliroside 11.02; kaempferol 1.12; m-HPAA, p-HPAA, DOPAC 1.95 µg/mL)",1.91 ± 0.2 µg/mL
same,Accuracy Bias 0 h,[2]; medium nominal conc.,0.13%
same,Observed Conc. 0 h,"[2]; medium nominal conc. (rutin 3.50; quercetin glucoside, quercitrin, tiliroside 22.18; kaempferol 2.24; m-HPAA, p-HPAA, DOPAC 7.81 µg/mL)",7.80 ± 0.01 µg/mL
same,Accuracy Bias 8 h,[2]; high nominal conc.,0.90%
same,Observed Conc. 8 h,[2]; [7],31.53 ± 0.19 µg/mL
same,Accuracy Bias 8 h,[2]; low nominal conc.,2.23%
same,Observed Conc. 8 h,[2]; [8],1.91 ± 0.03 µg/mL
same,Accuracy Bias 8 h,[2]; medium nominal conc.,2.18%
same,Observed Conc. 8 h,[2]; [9],7.98 ± 0.12 µg/mL
same,Accuracy Bias 24 h,[2]; high nominal conc.,0.30%
same,Observed Conc. 24 h,[2]; [7],31.34 ± 0.07 µg/mL
same,Accuracy Bias 24 h,[2]; low nominal conc.,2.73%
same,Observed Conc. 24 h,[2]; [8],1.90 ± 0.04 µg/mL
same,Accuracy Bias 24 h,[2]; medium nominal conc.,0.09%
same,Observed Conc. 24 h,[2]; [9],7.82 ± 0.01 µg/mL
same,Accuracy Bias Autosampler (4 °C; 8 h),[2]; high nominal conc.,2.73%
same,Accuracy Bias Long-term (−70°C; 1 month),[2]; high nominal conc.,2.23%
same,Observed Conc. Autosampler (4 °C; 8 h),[2]; [7],31.34 ± 0.07 µg/mL
same,Observed Conc. Long-term (−70 °C; 1 month),[2]; [7],31.20 ± 0.19 µg/mL
same,Accuracy Bias Autosampler (4 °C; 8 h),[2]; low nominal conc.,0.09%
same,Accuracy Bias Long-term (−70°C; 1 month),[2]; low nominal conc.,0.90%
same,Observed Conc. Autosampler (4 °C; 8 h),[2]; [8],1.93 ± 0.04 µg/mL
same,Observed Conc. Long-term (−70 °C; 1 month),[2]; [8],1.92 ± 0.03 µg/mL
same,Accuracy Bias Autosampler (4 °C; 8 h),[2]; medium nominal conc.,0.30%
same,Accuracy Bias Long-term (−70°C; 1 month),[2]; medium nominal conc.,2.18%
same,Observed Conc. Autosampler (4 °C; 8 h),[2]; [9],7.82 ± 0.01 µg/mL
same,Observed Conc. Long-term (−70 °C; 1 month),[2]; [9],7.80 ± 0.12 µg/mL
same,concentration at 5 min,"[3]; 5 min after single oral dose of 200 mg/kg of the anxiolytic fraction, ND = not detected",4.67 ± 0.27 µg/mL
same,concentration at 10 min,[3]; 10 min after single oral dose of 200 mg/kg of the anxiolytic fraction,5.06 ± 0.22 µg/mL
same,concentration at 15 min,[3]; 15 min after single oral dose of 200 mg/kg of the anxiolytic fraction,4.75 ± 0.29 µg/mL
same,concentration at 30 min,[3]; 30 min after single oral dose of 200 mg/kg of the anxiolytic fraction,4.52 ± 0.28 µg/mL
same,concentration at 60 min,[3]; 60 min after single oral dose of 200 mg/kg of the anxiolytic fraction,4.29 ± 0.13 µg/mL
same,concentration at 120 min,[3]; 120 min after single oral dose of 200 mg/kg of the anxiolytic fraction,4.17 ± 0.33 µg/mL
same,concentration at 240 min,[3]; 240 min after single oral dose of 200 mg/kg of the anxiolytic fraction,4.11 ± 0.23 µg/mL
same,concentration at 480 min,[3]; 480 min after single oral dose of 200 mg/kg of the anxiolytic fraction,4.04 ± 0.25 µg/mL
same,concentration at 720 min,[3]; 720 min after single oral dose of 200 mg/kg of the anxiolytic fraction,3.94 ± 0.19 µg/mL
same,concentration at 1440 min,[3]; 1440 min after single oral dose of 200 mg/kg of the anxiolytic fraction,3.79 ± 0.28 µg/mL
